Experimental data taken from patent US7151175B2, “Propenecarboxylic acid amidoxime derivatives, a process for the preparation thereof, and pharmaceutical compositions containing the same” (N-Gene Research Laboratories Inc., priority 2000, dated 2006).
Structures can show the parent of a compound that is named as a salt.

Tests used:
conscious rabbits = experiment: Hyperinsulinaemic euglycaemic clamp studies (insulin sensitivity); type: in vivo, rabbit
Method: It was investigated whether treatment with the compounds of the invention effected insulin sensitivity of normal and hypercholesterolaemic conscious rabbits. Adult male white New Zealand rabbits weighing 3–3.5 kg, housed in an animal room (12-hour light/dark periods a day, temperature of 22–25° C., humidity of 50–70%), fed commercial laboratory chow and tap water ad libitum were used throughout. The experimental period commenced after a two-week adaptation period. The rabbits were randomized into two main groups. Half of the animals were continued to feed normal rabbit chow, whereas the second group animals were fed chow enriched with 1.5% cholesterol over a period of eight week. Each main group was divided into four treatment groups: • untreated group, • group treated with a compound of the invention, 10 mg/kg i.v. dose twice a day over 4 days, • group treated with 7-nitroindazole as NOS inhibitor: administration of 5 mg/kg of 7-nitroindazole over 5 min. preceded insulin administration with a 5-min inter-infusion interval, • group treated with both 7-nitroindazole and the compound of the invention as described.
The animals were anaesthetized and polyethylene catheters were inserted into two major branches of the right jugular vein and the left carotid artery. The catheters were exteriorized through the back of the neck and filled with physiological saline containing heparin. […]

male SPRD rats = experiment: Heart ischemic failure and reperfusion arrhythmia (LAD occlusion/reperfusion); type: in vivo, rat; conditions: 5 min LAD occlusion, 10 min reperfusion
Method: Experiments were carried out in male SPRD rats (acceptable body weight range: 300–350 g). The animals were anesthetized by the administration of pentobarbital [5-ethyl-5-(1-methylbutyl)-2,4,6-(1H,3H,5H)-pyrimidintrione] (60 mg/kg intraperitoneally), and remained breathing spontaneously. The animals were ventilated with a respirator (manufactured by Kutesz, Hungarian Academy of Sciences) by using a trachea cannule inserted after tracheotomy. The standard lead of the ECG II was monitored. The right femoral artery was catheterized and connected to a pressure transducer (BPR-01, Experimetria, Hungary) and a preamplifier. The pulsotachometer (HG-M, Experimetria, Hungary) was started by the pulsating signal of arterial blood pressure. The external jugular vein was cannulated for drug administration. After thoracotomy, a silk (braided, coated 4-0) was placed under the left anterior coronary (LAD) artery. After a few minutes' stabilization period, a 5 min occlusion of LAD artery was applied followed by a 10 min reperfusion period. ECG was recorded in the normal state at the start and in the above periods. From the data of ECG, the span of time of ventricular tachycardia and fibrillation was determined in sec. In addition, the survival ratios in the treated animal groups were recorded.

[1] = molecular target: T1, poly(adenosine diphosphate ribose)polymerase (PARP) (Rattus norvegicus, UniProt P27008); experiment: Determination of PARP inhibition, in vitro, on isolated enzyme; type: biochemical; conditions: PARP isolated from rat liver; four parallel measurements; read-out: PARP I0.5 (converted)
T1 construct: was isolated from rat liver according to the article of Shah, G. M; from tissue; host or cells: rat liver
T1 sequence (P27008 whole entry): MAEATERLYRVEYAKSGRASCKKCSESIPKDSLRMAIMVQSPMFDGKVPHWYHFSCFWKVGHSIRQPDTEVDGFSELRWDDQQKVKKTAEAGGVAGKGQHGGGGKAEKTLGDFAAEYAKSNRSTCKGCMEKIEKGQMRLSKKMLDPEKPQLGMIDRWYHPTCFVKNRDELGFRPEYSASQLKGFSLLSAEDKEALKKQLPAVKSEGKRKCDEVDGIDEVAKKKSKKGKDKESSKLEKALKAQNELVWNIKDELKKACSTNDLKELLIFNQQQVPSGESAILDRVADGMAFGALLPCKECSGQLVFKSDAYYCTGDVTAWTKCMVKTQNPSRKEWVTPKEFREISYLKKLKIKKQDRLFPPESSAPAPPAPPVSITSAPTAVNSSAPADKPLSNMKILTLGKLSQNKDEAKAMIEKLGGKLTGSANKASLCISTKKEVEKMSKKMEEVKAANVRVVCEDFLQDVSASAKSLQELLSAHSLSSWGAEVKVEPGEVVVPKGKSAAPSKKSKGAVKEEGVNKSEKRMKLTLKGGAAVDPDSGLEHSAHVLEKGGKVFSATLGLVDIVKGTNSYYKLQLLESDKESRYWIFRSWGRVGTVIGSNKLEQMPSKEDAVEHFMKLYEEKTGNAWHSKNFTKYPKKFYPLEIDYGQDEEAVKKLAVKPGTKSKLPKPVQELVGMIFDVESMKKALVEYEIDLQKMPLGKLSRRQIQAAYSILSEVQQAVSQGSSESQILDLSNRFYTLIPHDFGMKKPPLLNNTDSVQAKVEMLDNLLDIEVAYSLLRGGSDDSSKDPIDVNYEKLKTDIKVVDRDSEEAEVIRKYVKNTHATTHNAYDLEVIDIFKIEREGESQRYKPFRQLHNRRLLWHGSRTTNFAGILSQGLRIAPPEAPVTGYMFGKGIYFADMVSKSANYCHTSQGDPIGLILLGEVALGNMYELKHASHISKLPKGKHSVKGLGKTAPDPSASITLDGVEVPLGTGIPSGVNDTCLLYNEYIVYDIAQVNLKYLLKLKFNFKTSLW
Method: The poly(adenosine diphosphate ribose)polymerase was isolated from rat liver according to the article of Shah, G. M. [Anal. Biochem., 227, 1–13 (1995)]. The PARP activity was determined in 130 μl of reaction mixture consisting of 100 mM of tris-HCl buffer, pH 8.0, 10 mM of MgCl2, 10% glycerol, 1.5 mM of DTT, 100 μg of (32P) or (3H) NAD+, 10 μg of activated DNA, 10 μg of histone. [Tris-HCl is tris(hydroxymethyl)aminomethane hydrochloride.] After 10 minutes of incubation time, the reaction was stopped with 8% perchloric acid, and the protein was separated through centrifugation (10 minutes, 10.000×g). The precipitate was washed with 8% perchloric acid three times, and the radioactivity bound to the protein was measured with a scintillation counter.

male NMRI mice = experiment: Hepatotoxicity induced by acetaminophene (paracetamol); type: in vivo, mouse; conditions: dose of 50 mg/kg
Method: It was examined whether the liver damage induced with paracetamol can be prevented by the novel compounds of the formula I. The symptom of liver damage was characterized by an increase of the GOT and […] enzyme levels induced with paracetamol. The experiments were carried out on male NMRI mice of 30–40 g body weight. The animals were pretreated with the compounds of the formula I, perorally, for 7 days. On day 8, the mice were subjected to starvation for 12 hours, then a 500 mg/kg p.o. dose of paracetamol and a given dose of a compound of the formula I were administered. After 16 hours, the animals were bled to death and the activity of the GOT and GPT enzymes was measured in the serum. The results were analyzed by the non-parametric test of Mann and Whitney. As to the results, the average and the standard deviation are given wherein p<0.05 was considered as significant.

C57BI mice = experiment: Experimental model of Parkinson's disease (MPTP); type: in vivo, mouse; conditions: four times 20 mg/kg MPTP intraperitoneally
Text: Parkinson's disease (PD) is a common disabling idiopathic neurodegenerative disorder characterized by tremor, bradykinesia, rigidity and balance difficulties. These motor abnormalities are caused by the depletion of brain dopamine that results from the loss of dopaminerg neurons in the substantia nigra pars compacta. The analysis of the action of 1-methyl-4-phenyl-1,2,3,6-tetrahydropyridine (MPTP) having selective neurotoxicity shed light to the possible patomechanism of the Parkinson's disease. MPTP induces parkinsonian motor signs in both human and animals [Dexter, A. et al., Ann. Neurol., 35, 38–44 (1994)]. MPTP treatment results in a loss of dopaminergic neurons in the substantia nigra pars compacta, as well. Lewy body-like eosinophilic inclusions appear in the damaged neurons and the activity of mitochondrial complex I is also diminished in these cells. These alterations are characteristic for oxidative stress [Shapira, A., Adv. Neurol., 69, 161–165 (1996)]. The biologically active metabolite of MPTP is MPP [1-methyl-4-phenylpyridinium]. MPP inhibits directly complex I in mitochondria leading to increased generation of superoxide anion. […] After centrifugation (14000×g, 10 min, 4° C.), 20 μl of supernatant were injected onto a reverse phase catecholamine column (ESA, Bedford) and dopamine content was evaluated. […]

Compound	IC50 [1] [µM]	also measured
O=[N+]([O-])c1cccc2cn[nH]c12 [7-nitroindazole]	–	effect on the insulin resistance ameliorating effect of the compounds of the invention (conscious rabbits; experimental hypercholesterolaemia): blocked the insulin resistance ameliorating effect; insulin resistance produced by the substance itself (conscious rabbits; normal animals, 5 mg/kg 7-nitroindazole): produced insulin resistance
O=c1onc(C=Cc2ccccc2)n1CC(O)CN1CCCCC1 (centres unmarked) [Example 2, 3-Styryl-4-(3-piperidino-2-hydroxipropyl)-Δ^2-1,2,4-oxadiazolin-5-one hydrochloride]	27.3	longer survival relative to the control group after reperfusion (male SPRD rats): 50%
O=c1onc(C=Cc2ccccc2)n1CC(O)CN1CCCC1 (centres unmarked) [Example 3, 3-Styryl-4-(3-pyrrolidino-2-hydroxypropyl)-Δ^2-1,2,4-oxadiazolin-5-one-hydrochloride]	25.4	–
O=c1onc(C=Cc2ccccc2)n1CC(O)CN1CCCCCC1 (centres unmarked) [Example 4, 3-Styryl-4-(3-hexamethyleneimino-2-hydroxypropyl)-Δ^2-1,2,4-oxadiazolin-5-one hydrochloride]	40.8	–
O=c1onc(C=Cc2ccccc2)n1CC(O)CN1CCOCC1 (centres unmarked) [Example 5, 3-Styryl-4-(3-morpholino-2-hydroxypropyl)-Δ^2-1,2,4-oxadiazolin-5-one hydrochloride]	39.2	–
CC(C)(C)NCC(O)Cn1c(C=Cc2ccccc2)noc1=O (centres unmarked) [Example 6, 3-Styryl-4-[3-(tert.-butylamino)-2-hydroxypropyl]-Δ^2-1,2,4-oxadiazolin-5-one hydrochloride]	53.6	–
O=c1onc(C=Cc2ccccc2)n1CC(O)CN1CCc2ccccc2C1 (centres unmarked) [Example 8, 3-Styryl-4-[3-(1,2,3,4-tetrahydro-2-isoquinolyl)-2-hydroxypropyl]-Δ^2-1,2,4-oxadiazolin-5-one hydrochloride]	31.8	–
Cc1cccc(C)c1NCC(O)Cn1c(C=Cc2ccccc2)noc1=O (centres unmarked) [Example 9, 3-Styryl-4-[3-(2,6-dimethylanilino)-2-hydroxypropyl]-Δ^2-1,2,4-oxadiazolin-5-one hydrochloride]	19.2	–
COc1ccc(C=Cc2noc(=O)n2CC(O)CN2CCCCC2)cc1OC (centres unmarked) [Example 10, 3-(3,4-Dimethoxystyryl)-4-(3-piperidino-2-hydroxypropyl)-Δ^2-1,2,4-oxadiazolin-5-one hydrochloride]	71.9	–
ON=C(C=Cc1ccccc1)NCC(O)CN1CCCCC1 (centres unmarked) [Example 12, N-(3-Piperidino-2-hydroxypropyl)cinnamic acid amidoxime]	59.3	hepatoprotective effect (male NMRI mice): very favourable hepatoprotective effect
ON=C(C=Cc1ccccc1)NCC(O)CN1CCOCC1 (centres unmarked) [Example 13, N-(3-Morpholino-2-hydroxypropyl)cinnamic acid amidoxime dihydrogen maleate]	65.5	–
CN1CCN(CC(O)CNC(C=Cc2ccccc2)=NO)CC1 (centres unmarked) [Example 14, N-[3-(1-Methyl-4-piperazinyl)-2-hydroxypropyl]cinnamic acid amidoxime trihydrogen maleate]	28.3	–
C(=Cc1ccccc1)C1=NOC(CN2CCCCC2)CN1 (centres unmarked) [Example 16, 3-Styryl-6-(piperidinomethyl)-4H-5,6-dihydro-1,2,4-oxadiazine]	63.1	–
CN1CC=C(c2ccccc2)CC1 [MPTP, 1-methyl-4-phenyl-1,2,3,6-tetrahydropyridine]	–	decrease in striatal dopamine content (C57BI mice): 80%
